Laboratory results taken from patent publication US11525835B2, “Compounds and methods for use in detecting gabapentin” (Ark Diagnostics, Inc., priority 2007, dated 2022).

Test system: Rabbit polyclonal antibody #10930
Test: Specificity of the immunoassay (cross-reactivity of antibody with other antiepileptic drugs)
Format: binding
Details: assayed in duplicate, Cobas Mira
From the text: Antibodies obtained using any of the disclosed techniques are screened or purified not only for their ability to react with gabapentin, but for a low cross-reactivity with potential interfering substances. “Cross-reactivity” may be determined in a quantitative immunoassay by establishing a standard curve using known dilutions of the target analyte, gabapentin. The standard curve is then used to calculate the apparent concentration of the interfering substance present in various known amounts in samples assayed under similar condition. The cross-reactivity is the apparent concentration divided by the actual concentration multiplied by 100. An exemplary immunoassay for determining cross-reactivity is a homogeneous enzyme immunoassay using a wild type G6PDH as described in U.S. Pat. No. 3,817,837 or mutant G6PDH engineered to contain a cysteine per subunit as described in U.S. Pat. Nos. 6,033,890, 6,090,567 and 6,455,288. Furthermore, the cross-reactivity can be determined in the same type of immunoassay in which the antibody will ultimately be used.
The gabapentin antibodies and enzyme conjugates may be advantageously used in a homogeneous assay format to detect gabapentin in samples. An analyzer (instrument) useful to set up the assay is Roche Cobas Mira (Roche Diagnostics). Gabapentin containing sample is incubated with antibody reagent followed by the addition of the enzyme conjugate reagent. The enzyme conjugate activity decreases upon binding to the antibody. The enzyme conjugate, which is not bound to the antibody, catalyzes the oxidation of glucose 6-phosphate (G6P). The oxidation of G6P is coupled with the reduction of NAD^+ to NADH, which can be measured at 340 nm. The change in the absorbance at 340 nm can be measured spectrophotometrically. The gabapentin concentration in a specimen can be measured in terms of G6PDH activity. The increase in the rate at 340 nm is due to the formation of NADH and is proportional to the enzyme conjugate activity. An assay curve is generated (FIG. 6) using gabapentin spiked into negative calibrator matrix. The assay rate increases with increasing the concentration of free drug in the sample.
The specificity of the immunoassay was evaluated by adding potentially crossreactant drugs to human serum and determining the increase in the apparent concentration as a result of the presence of crossreactant. Separate stock solutions of gabapentin were prepared by dissolving the drug in methanol to give a stock solution of 1000 μg/mL. […] Each sample was assayed in duplicate. Testing was performed on the Cobas Mira Analyzer®. The percentage concentration above 5 μg/mL of gabapentin was calculated for each crossreactant.

[1] = AED at 100 μg/mL in human serum

Row | SMILES | Percent Increase in Apparent Gabapentin [1] | Percent Increase in Apparent Gabapentin (AED at 50 μg/mL in human serum)
1 | CCCC(CCC)C(=O)O [Valproic Acid] | 0% | –
2 | NC(=O)N1c2ccccc2C=Cc2ccccc21 [Carbamazepine] | 0% | –
3 | Nc1nnc(-c2cccc(Cl)c2Cl)c(N)n1 [Lamotrigine] | 0% | –
4 | NS(=O)(=O)Cc1noc2ccccc12 [Zonisamide] | – | 0%
5 | CC[C@@H](C(N)=O)N1CCCC1=O [Levetiracetam] | 0% | –
